The values that follow come from paper PMC5218480 (PLoS ONE, 2017).

Each structure is given as a SMILES string.

The test system of this assay is MV-4-11 cells. The assay can be described thus: Gene expression microarray analysis (Affymetrix PrimeView) and GSEA. The following applies: MV-4-11 cells, 48 hours. Also noted: RFU PODN (11730768_x_at) / Fold change /veh PODN (11730768_x_at) / RFU LINC00158 (11744669_a_at) / Fold change /veh LINC00158 (11744669_a_at) / RFU DUSP10 (11751237_a_at) / Fold change /veh DUSP10 (11751237_a_at) / RFU ID3 (11757404_x_at) / Fold change /veh ID3 (11757404_x_at) / RFU PLEKHG5 (11737974_s_at) / Fold change /veh PLEKHG5 (11737974_s_at) / RFU LRRC4B (11730491_at) / Fold change /veh LRRC4B (11730491_at) / RFU GIMAP4 (11747438_a_at) / Fold change /veh GIMAP4 (11747438_a_at) / RFU KRT8 (11758183_x_at) / Fold change /veh KRT8 (11758183_x_at) / RFU CNN1 (11734310_a_at) / Fold change /veh CNN1 (11734310_a_at) / RFU VPS37D (11726825_at) / Fold change /veh VPS37D (11726825_at) / RFU C10orf10 (11716522_x_at) / Fold change /veh C10orf10 (11716522_x_at) / RFU KIR2DL2 /// KIR2DL4 /// KIR2DL5A /// KIR2DL5B /// KIR2DS1 /// KIR2DS2 /// KIR2DS3 /// KIR2DS4 /// KIR3DL3 /// KIR3DL3 /// KIR3DS1 (11738374_at) / Fold change /veh KIR2DL2 /// KIR2DL4 /// KIR2DL5A /// KIR2DL5B /// KIR2DS1 /// KIR2DS2 /// KIR2DS3 /// KIR2DS4 /// KIR3DL3 /// KIR3DL3 /// KIR3DS1 (11738374_at) / RFU C1QL1 (11718748_at) / Fold change /veh C1QL1 (11718748_at) / RFU TMPRSS4 (11747572_a_at) / Fold change /veh TMPRSS4 (11747572_a_at) / RFU HAMP (11756126_x_at) / Fold change /veh HAMP (11756126_x_at) / RFU RNFT2 (11725882_a_at) / Fold change /veh RNFT2 (11725882_a_at) / RFU NR4A2 (11747474_a_at) / Fold change /veh NR4A2 (11747474_a_at) / RFU ABCC12 (11746883_a_at) / Fold change /veh ABCC12 (11746883_a_at) / RFU TMEM136 (11760407_x_at) / Fold change /veh TMEM136 (11760407_x_at) / RFU CLDN22 /// WWC2 (11732394_at) / Fold change /veh CLDN22 /// WWC2 (11732394_at) / RFU HLA-DPB1 (11760878_x_at) / Fold change /veh HLA-DPB1 (11760878_x_at) / RFU SPINT1 (11716480_a_at) / Fold change /veh SPINT1 (11716480_a_at) / RFU GAP43 (11754022_s_at) / Fold change /veh GAP43 (11754022_s_at) / RFU A4GNT (11735810_at) / Fold change /veh A4GNT (11735810_at) / RFU PRB3 (11715151_x_at) / Fold change /veh PRB3 (11715151_x_at) / RFU TUBB4B (11761932_at) / Fold change /veh TUBB4B (11761932_at) / RFU CAPN14 (11732068_a_at) / Fold change /veh CAPN14 (11732068_a_at) / RFU TMCC2 (11721928_a_at) / Fold change /veh TMCC2 (11721928_a_at) / RFU IRGQ (11745062_a_at) / Fold change /veh IRGQ (11745062_a_at) / RFU FAM174B (11720279_a_at) / Fold change /veh FAM174B (11720279_a_at) / RFU TMPRSS4 (11748680_a_at) / Fold change /veh TMPRSS4 (11748680_a_at) / RFU FAM212B (11763350_a_at) / Fold change /veh FAM212B (11763350_a_at) / RFU PLEKHG5 (11743358_a_at) / Fold change /veh PLEKHG5 (11743358_a_at) / RFU ZSCAN30 (11745921_a_at) / Fold change /veh ZSCAN30 (11745921_a_at) / RFU CMKLR1 (11741424_a_at) / Fold change /veh CMKLR1 (11741424_a_at) / RFU LOC101060620 /// MAPK8IP1 (11723275_at) / Fold change /veh LOC101060620 /// MAPK8IP1 (11723275_at) / RFU SPTSSB (11747773_x_at) / Fold change /veh SPTSSB (11747773_x_at) / RFU PRSS12 (11739890_at) / Fold change /veh PRSS12 (11739890_at) / RFU BIN1 (11741810_x_at) / Fold change /veh BIN1 (11741810_x_at) / RFU WNT11 (11732464_a_at) / Fold change /veh WNT11 (11732464_a_at) / RFU C10orf10 (11716521_a_at) / Fold change /veh C10orf10 (11716521_a_at) / RFU C5orf56 (11738089_at) / Fold change /veh C5orf56 (11738089_at) / RFU CYB561 (11721691_x_at) / Fold change /veh CYB561 (11721691_x_at) / RFU ANKRD19P (11752326_a_at) / Fold change /veh ANKRD19P (11752326_a_at) / RFU OR2T12 /// OR2T33 /// OR2T8 (11738714_s_at) / Fold change /veh OR2T12 /// OR2T33 /// OR2T8 (11738714_s_at) / RFU VCAN (11748164_a_at) / Fold change /veh VCAN (11748164_a_at) / RFU JSRP1 (11732532_at) / Fold change /veh JSRP1 (11732532_at) / RFU KRTAP10-11 (11738290_x_at) / Fold change /veh KRTAP10-11 (11738290_x_at) / RFU MYO3A (11730013_a_at) / Fold change /veh MYO3A (11730013_a_at) / RFU EBF3 (11725865_a_at) / Fold change /veh EBF3 (11725865_a_at) / RFU CAMK2N1 (11719241_x_at) / Fold change /veh CAMK2N1 (11719241_x_at) / RFU C5orf56 (11738088_a_at) / Fold change /veh C5orf56 (11738088_a_at) / RFU OLFML3 (11715873_a_at) / Fold change /veh OLFML3 (11715873_a_at) / RFU LOC100653217 /// NTM (11731650_a_at) / Fold change /veh LOC100653217 /// NTM (11731650_a_at) / RFU MAPK11 (11762145_a_at) / Fold change /veh MAPK11 (11762145_a_at) / RFU FIZ1 (11724087_x_at) / Fold change /veh FIZ1 (11724087_x_at) / RFU OASL (11726364_x_at) / Fold change /veh OASL (11726364_x_at) / RFU SOX15 (11748057_x_at) / Fold change /veh SOX15 (11748057_x_at) / RFU CD79A (11719716_a_at) / Fold change /veh CD79A (11719716_a_at) / RFU HIST1H1D (11736915_at) / Fold change /veh HIST1H1D (11736915_at) / RFU CASKIN2 (11723855_a_at) / Fold change /veh CASKIN2 (11723855_a_at) / RFU LOC730098 (11760151_x_at) / Fold change /veh LOC730098 (11760151_x_at) / RFU OR4N2 (11742367_at) / Fold change /veh OR4N2 (11742367_at) / RFU PRRT2 (11749266_a_at) / Fold change /veh PRRT2 (11749266_a_at) / RFU SNX32 (11753110_a_at) / Fold change /veh SNX32 (11753110_a_at) / RFU CDHR5 (11726645_a_at) / Fold change /veh CDHR5 (11726645_a_at) / RFU RCAN1 (11760418_a_at) / Fold change /veh RCAN1 (11760418_a_at) / RFU FAM167A (11723789_a_at) / Fold change /veh FAM167A (11723789_a_at) / RFU FAM26E (11764081_at) / Fold change /veh FAM26E (11764081_at) / RFU ISYNA1 (11749810_s_at) / Fold change /veh ISYNA1 (11749810_s_at) / RFU ACY1 (11761880_at) / Fold change /veh ACY1 (11761880_at) / RFU 11764098_at / Fold change /veh 11764098_at / RFU SAMD14 (11745864_x_at) / Fold change /veh SAMD14 (11745864_x_at) / RFU NPB (11741838_a_at) / Fold change /veh NPB (11741838_a_at) / RFU TMPRSS6 (11731388_a_at) / Fold change /veh TMPRSS6 (11731388_a_at) / RFU KRTAP10-2 (11738614_at) / Fold change /veh KRTAP10-2 (11738614_at) / RFU ARHGAP8 /// PRR5-ARHGAP8 (11727945_x_at) / Fold change /veh ARHGAP8 /// PRR5-ARHGAP8 (11727945_x_at) / RFU KRTAP5-7 /// NADSYN1 (11734609_at) / Fold change /veh KRTAP5-7 /// NADSYN1 (11734609_at) / RFU RASL12 (11751679_a_at) / Fold change /veh RASL12 (11751679_a_at) / RFU CDKN2B (11736163_a_at) / Fold change /veh CDKN2B (11736163_a_at) / RFU PRF1 (11729649_at) / Fold change /veh PRF1 (11729649_at) / RFU, ZNF638 /// ZNF638-IT1 / Fold change vs veh, ZNF638 /// ZNF638-IT1 / RFU, PANK3 / Fold change vs veh, PANK3 / RFU, SH3YL1 / Fold change vs veh, SH3YL1 / RFU, ZEB2 / Fold change vs veh, ZEB2 / RFU, NRIP1 / Fold change vs veh, NRIP1 / RFU, PTTG1IP / Fold change vs veh, PTTG1IP / RFU, CAPN2 / Fold change vs veh, CAPN2 / RFU, MED14 / Fold change vs veh, MED14 / RFU, SNORA58 / Fold change vs veh, SNORA58 / RFU, C1orf63 / Fold change vs veh, C1orf63 / RFU, LRRFIP1 / Fold change vs veh, LRRFIP1 / RFU, NDUFAF7 / Fold change vs veh, NDUFAF7 / RFU, SLC12A2 / Fold change vs veh, SLC12A2 / RFU, IBTK / Fold change vs veh, IBTK / RFU, ESF1 / Fold change vs veh, ESF1 / Fold change vs veh, TMEM50B / RFU, TAOK1 / Fold change vs veh, TAOK1 / RFU, ACBD3 / Fold change vs veh, ACBD3 / RFU, TMA16 / Fold change vs veh, TMA16 / RFU, RWDD3 / Fold change vs veh, RWDD3 / RFU, BCAT1 / Fold change vs veh, BCAT1 / RFU, EDEM3 / Fold change vs veh, EDEM3 / RFU, TMEM33 / Fold change vs veh, TMEM33 / RFU, WDR75 / Fold change vs veh, WDR75 / RFU, AHCTF1 / Fold change vs veh, AHCTF1 / RFU, TFRC / Fold change vs veh, TFRC / RFU, ZDHHC17 / Fold change vs veh, ZDHHC17 / RFU, NOM1 / Fold change vs veh, NOM1 / RFU, ARL8B / Fold change vs veh, ARL8B / RFU, ZBTB11 / Fold change vs veh, ZBTB11 / RFU, TAMM41 / Fold change vs veh, TAMM41 / RFU, KIAA1704 /// LOC100996395 / Fold change vs veh, KIAA1704 /// LOC100996395 / RFU, ING1 / Fold change vs veh, ING1 / RFU, TRMT61B / Fold change vs veh, TRMT61B / RFU, FUBP3 / Fold change vs veh, FUBP3 / RFU, TP53 / Fold change vs veh, TP53 / RFU, TNKS2 / Fold change vs veh, TNKS2 / RFU, ZFP14 / Fold change vs veh, ZFP14 / RFU, ACTR2 / Fold change vs veh, ACTR2 / RFU, PPP3R1 / Fold change vs veh, PPP3R1 / RFU, PIK3R1 / Fold change vs veh, PIK3R1 / RFU, HNRNPA1 / Fold change vs veh, HNRNPA1 / RFU, RNF170 / Fold change vs veh, RNF170 / RFU, ZNF28 / Fold change vs veh, ZNF28 / RFU, RNGTT / Fold change vs veh, RNGTT / RFU, OGT / Fold change vs veh, OGT / RFU, BRD1 / Fold change vs veh, BRD1 / RFU, MARS / Fold change vs veh, MARS / RFU, ZNF655 / Fold change vs veh, ZNF655 / RFU, FAHD1 / Fold change vs veh, FAHD1 / RFU, BDP1 / Fold change vs veh, BDP1 / RFU, LRRCC1 / Fold change vs veh, LRRCC1 / RFU, ARID1A / Fold change vs veh, ARID1A / RFU, ZNF146 / Fold change vs veh, ZNF146 / RFU, ZNF330 / Fold change vs veh, ZNF330 / RFU, GPN3 / Fold change vs veh, GPN3 / RFU, C9orf123 / Fold change vs veh, C9orf123 / RFU, N4BP2L2 / Fold change vs veh, N4BP2L2 / RFU, ARFIP1 / Fold change vs veh, ARFIP1 / RFU, FAM179B / Fold change vs veh, FAM179B / RFU, BCL10 / Fold change vs veh, BCL10 / RFU, UHRF1BP1L / Fold change vs veh, UHRF1BP1L / RFU, BET1 / Fold change vs veh, BET1 / RFU, CNOT2 / Fold change vs veh, CNOT2 / RFU, ZNF268 / Fold change vs veh, ZNF268 / Fold change vs veh, ZNF507 / RFU, DGCR2 / Fold change vs veh, DGCR2 / RFU, WDSUB1 / Fold change vs veh, WDSUB1 / Fold change vs veh, HSP90B1 /// MIR3652 / RFU, ADSS / Fold change vs veh, ADSS / RFU, GK / Fold change vs veh, GK / RFU, ZNF148 / Fold change vs veh, ZNF148 / RFU, TAF9 / Fold change vs veh, TAF9 / RFU, SLC1A5 / Fold change vs veh, SLC1A5 / RFU, SLMO2 / Fold change vs veh, SLMO2 / RFU, ABCC4 / Fold change vs veh, ABCC4 / RFU, LOC101060439 /// RAP1B / Fold change vs veh, LOC101060439 /// RAP1B / RFU, RFX7 / Fold change vs veh, RFX7 / RFU, GTPBP10 / Fold change vs veh, GTPBP10 / RFU, CNEP1R1 / Fold change vs veh, CNEP1R1 / RFU, BIVM-ERCC5 /// ERCC5 / Fold change vs veh, BIVM-ERCC5 /// ERCC5 / RFU, ILF3 / Fold change vs veh, ILF3 / RFU 11762660_at / Fold change /veh 11762660_at / RFU VCAN (11757783_s_at) / Fold change /veh VCAN (11757783_s_at) / RFU DDX43 (11728927_at) / Fold change /veh DDX43 (11728927_at) / RFU KRT8 (11758188_x_at) / Fold change /veh KRT8 (11758188_x_at) / RFU NKD1 (11759106_at) / Fold change /veh NKD1 (11759106_at) / RFU SRD5A1 (11742802_a_at) / Fold change /veh SRD5A1 (11742802_a_at) / RFU TPSAB1 /// TPSB2 (11721975_s_at) / Fold change /veh TPSAB1 /// TPSB2 (11721975_s_at) / RFU GSTM3 (11746129_a_at) / Fold change /veh GSTM3 (11746129_a_at) / RFU IL23R (11737362_x_at) / Fold change /veh IL23R (11737362_x_at) / RFU TMEM51 (11727254_a_at) / Fold change /veh TMEM51 (11727254_a_at) / RFU PIWIL2 (11732686_x_at) / Fold change /veh PIWIL2 (11732686_x_at) / RFU ORM1 (11744905_x_at) / Fold change /veh ORM1 (11744905_x_at) / RFU CCDC152 (11743942_at) / Fold change /veh CCDC152 (11743942_at) / RFU ECM1 (11717891_a_at) / Fold change /veh ECM1 (11717891_a_at) / RFU IL23R (11748794_a_at) / Fold change /veh IL23R (11748794_a_at) / RFU TNFAIP8L3 (11732012_x_at) / Fold change /veh TNFAIP8L3 (11732012_x_at) / RFU MBOAT4 (11741988_at) / Fold change /veh MBOAT4 (11741988_at) / RFU 11764193_at / Fold change /veh 11764193_at / RFU TMEM53 (11763286_at) / Fold change /veh TMEM53 (11763286_at) / RFU MAGEB2 (11727129_at) / Fold change /veh MAGEB2 (11727129_at) / RFU TMEM200A (11744735_a_at) / Fold change /veh TMEM200A (11744735_a_at) / RFU CCDC152 (11751479_a_at) / Fold change /veh CCDC152 (11751479_a_at) / RFU FAM211A (11726209_a_at) / Fold change /veh FAM211A (11726209_a_at) / RFU RGS16 (11746705_a_at) / Fold change /veh RGS16 (11746705_a_at) / RFU VCAN (11755009_s_at) / Fold change /veh VCAN (11755009_s_at) / RFU RHOB (11743442_s_at) / Fold change /veh RHOB (11743442_s_at) / RFU RGS16 (11720943_a_at) / Fold change /veh RGS16 (11720943_a_at) / RFU RGS16 (11720944_at) / Fold change /veh RGS16 (11720944_at) / RFU, VPS4B / Fold change vs veh, VPS4B / RFU, CREB1 / Fold change vs veh, CREB1 / RFU, DNAJC13 / Fold change vs veh, DNAJC13 / RFU, GNAQ / Fold change vs veh, GNAQ / RFU, CDK5R1 / Fold change vs veh, CDK5R1 / RFU, ZRANB3 / Fold change vs veh, ZRANB3 / RFU, CUL4A / Fold change vs veh, CUL4A / RFU, CCNY / Fold change vs veh, CCNY / RFU, UFL1 / Fold change vs veh, UFL1 / RFU, COG3 / Fold change vs veh, COG3 / RFU, DIAPH2 / Fold change vs veh, DIAPH2 / RFU, SKA2 / Fold change vs veh, SKA2 / RFU, AFF3 / Fold change vs veh, AFF3 / RFU, LMF1 / Fold change vs veh, LMF1 / RFU, IPO11 / Fold change vs veh, IPO11 / RFU, DFFB / Fold change vs veh, DFFB / RFU, FOXP1 / Fold change vs veh, FOXP1 / RFU, CARD8 / Fold change vs veh, CARD8 / RFU, STRN3 / Fold change vs veh, STRN3 / RFU, ADK / Fold change vs veh, ADK / RFU, RASSF2 / Fold change vs veh, RASSF2 / RFU, WIPF1 / Fold change vs veh, WIPF1 / RFU, LARP1B / Fold change vs veh, LARP1B / RFU, RASA1 / Fold change vs veh, RASA1 / RFU, RB1 / Fold change vs veh, RB1 / RFU, PPFIA1 / Fold change vs veh, PPFIA1 / RFU, MAT2A / Fold change vs veh, MAT2A / RFU, CCT5 / Fold change vs veh, CCT5 / RFU, WDR92 / Fold change vs veh, WDR92 / RFU, CUX1 / Fold change vs veh, CUX1 / RFU, TTC7A / Fold change vs veh, TTC7A / RFU, TMEM135 / Fold change vs veh, TMEM135 / RFU, DEPTOR / Fold change vs veh, DEPTOR / RFU, CPM / Fold change vs veh, CPM / RFU, DNAJB6 / Fold change vs veh, DNAJB6 / RFU, CACNA2D3 / Fold change vs veh, CACNA2D3 / RFU, DTX4 / Fold change vs veh, DTX4 / RFU, TFCP2 / Fold change vs veh, TFCP2 / RFU, GMCL1 /// GMCL1P1 / Fold change vs veh, GMCL1 /// GMCL1P1 / RFU, AEBP2 / Fold change vs veh, AEBP2 / RFU, SNHG1 /// SNORD22 /// SNORD25 /// SNORD26 /// SNORD27 /// SNORD28 /// SNORD29 /// SNORD31 / Fold change vs veh, SNHG1 /// SNORD22 /// SNORD25 /// SNORD26 /// SNORD27 /// SNORD28 /// SNORD29 /// SNORD31 / Fold change (Aza/veh), C12orf56 (ProbeSet 11735607_a_at) / Fold change (ACY-1035/veh), C12orf56 (ProbeSet 11735607_a_at) / Fold change (Aza/veh), FGFR1OP (ProbeSet 11751329_s_at) / Fold change (ACY-1035/veh), FGFR1OP (ProbeSet 11751329_s_at) / Fold change (Aza/veh), VPS36 (ProbeSet 11739960_a_at) / Fold change (ACY-1035/veh), VPS36 (ProbeSet 11739960_a_at) / RFU SYPL1 (11715823_x_at) / Fold change /veh SYPL1 (11715823_x_at) / RFU IGFBP7 (11715501_s_at) / Fold change /veh IGFBP7 (11715501_s_at) / RFU REEP3 (11722064_at) / Fold change /veh REEP3 (11722064_at) / RFU IGLL1 (11728026_x_at) / Fold change /veh IGLL1 (11728026_x_at): dose or concentration left out as unconfirmed. The class given is cell-based, human.

As for `Nc1ccc(-c2cccs2)cc1NC(=O)c1ccc2c(c1)cc(C1CC1)n2CCN1CCOCC1` [ACY-1035], the “Fold change /veh LOC730098 (11760151_x_at)” value turned out to be 1.00.
